# Measurements from the supplement of paper PMC10307832.
# Experiments:
# Assay in all cases: relative viability (nuclei count vs DMSO), 5 days (fraction); higher = more cells survive
# Crizotinib + Lapatinib = compound: C[C@@H](Oc1cc(-c2cnn(C3CCNCC3)c2)cnc1N)c1c(Cl)ccc(F)c1Cl [Crizotinib] + CS(=O)(=O)CCNCc1ccc(-c2ccc3ncnc(Nc4ccc(OCc5cccc(F)c5)c(Cl)c4)c3c2)o1 [Lapatinib] (partner 2 µM)
# Outline: (§1)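 Relative viability equals treated-well nuclei counts divided by vehicle-well nuclei counts. Counts came from 4× images of lung cancer cell lines grown in 1536-well plates for 5 days after pin-tool dosing on the day after seeding. Dosing used one drug alone or a fixed anchor-drug dose plus five library-drug doses (not always all listed) in √10 steps, and values are medians of duplicate plates.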
# Carfilzomib + Bortezomib = compound: CC(C)C[C@H](NC(=O)[C@H](CCc1ccccc1)NC(=O)CN1CCOCC1)C(=O)N[C@@H](Cc1ccccc1)C(=O)N[C@@H](CC(C)C)C(=O)[C@@]1(C)CO1 [Carfilzomib] + CC(C)C[C@H](NC(=O)[C@H](Cc1ccccc1)NC(=O)c1cnccn1)B(O)O [Bortezomib] (partner 0.002 µM)
# Outline: as §1
# Olaparib + Foretinib = compound: O=C(c1cc(Cc2n[nH]c(=O)c3ccccc23)ccc1F)N1CCN(C(=O)C2CC2)CC1 [Olaparib] + COc1cc2c(Oc3ccc(NC(=O)C4(C(=O)Nc5ccc(F)cc5)CC4)cc3F)ccnc2cc1OCCCN1CCOCC1 [Foretinib] (partner 0.25 µM)
# Outline: as §1
# Olaparib + Lapatinib = compound: O=C(c1cc(Cc2n[nH]c(=O)c3ccccc23)ccc1F)N1CCN(C(=O)C2CC2)CC1 [Olaparib] + CS(=O)(=O)CCNCc1ccc(-c2ccc3ncnc(Nc4ccc(OCc5cccc(F)c5)c(Cl)c4)c3c2)o1 [Lapatinib] (partner 2 µM)
# Outline: as §1
Cell Line,relative viability (Crizotinib + Lapatinib; first compound 0.01 µM),relative viability (Crizotinib + Lapatinib; first compound 0.1 µM),relative viability (Crizotinib + Lapatinib; first compound 0.3162 µM),relative viability (Crizotinib + Lapatinib; first compound 1 µM),relative viability (Carfilzomib + Bortezomib; first compound 0.001 µM),relative viability (Carfilzomib + Bortezomib; first compound 0.003162 µM),relative viability (Carfilzomib + Bortezomib; first compound 0.01 µM),relative viability (Carfilzomib + Bortezomib; first compound 0.03162 µM),relative viability (Carfilzomib + Bortezomib; first compound 0.1 µM),relative viability (Olaparib + Foretinib; first compound 0.08 µM),relative viability (Olaparib + Foretinib; first compound 0.253 µM),relative viability (Olaparib + Foretinib; first compound 2.53 µM),relative viability (Olaparib + Foretinib; first compound 8 µM),relative viability (Olaparib + Lapatinib; first compound 0.08 µM),relative viability (Olaparib + Lapatinib; first compound 0.253 µM),relative viability (Olaparib + Lapatinib; first compound 2.53 µM),relative viability (Olaparib + Lapatinib; first compound 8 µM),relative viability (Crizotinib + Lapatinib; first compound 0.03162 µM)
201T,0.891,1.03,1.05,1.06,1.09,1.06,1.1,1.09,0.732,1.19,1.12,1.07,1.05,1.06,0.973,0.939,1,
A549,0.996,1.03,,1.05,,,,,,0.996,0.774,0.872,0.548,1.21,0.833,0.983,0.666,1.06
A-427,0.852,1.09,,1.12,0.995,0.963,0.727,0.436,0.131,1.03,1.01,0.769,0.834,1.13,0.931,0.879,1.02,1.07
ABC-1,1.2,1.16,1.12,1.36,0.334,0.231,0.242,0.27,0.225,1.09,1.31,0.98,0.922,1.01,1.07,1.02,1.25,1.1
BEN,0.697,0.642,0.719,0.749,0.518,0.929,0.883,0.485,0.281,,0.529,0.688,0.702,0.636,0.515,0.784,0.712,0.69
CAL-12T,0.664,0.658,,0.608,,1.17,1.13,0.691,0.195,1.24,0.984,1.07,0.928,0.94,0.643,0.631,0.664,0.771
COR-L23,0.835,0.983,0.985,0.985,0.94,0.877,0.253,0.0785,0.0696,1.08,0.842,0.797,0.567,1.26,0.815,0.739,0.438,1.1
COR-L 105,0.345,0.373,0.32,0.374,0.724,0.658,0.527,0.265,0.239,1.37,0.988,0.807,0.835,0.341,0.348,0.363,0.317,0.38
